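Method: 48-hour compound exposure of cells in 96-well plates, five concentrations, linear interpolation of endpoints. Here, GI50 denotes the concentration required for 50% inhibition of growth.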 Active and inactive are the calls of the source. Cut-off read from the data, not from the text of the source: active = GI50 up to about 1.1 µM and inactive = higher.
Tests used:
Assay in all cases: DTP human tumour cell line panel, 48 h
HCT-116 = system: HCT-116
K562 = system: K562
CAKI-1 = system: CAKI-1
A549 = system: A549
NCI/ADR-RES = system: NCI/ADR-RES
SF-539 = system: SF-539
Hs-578T = system: Hs-578T
SR = system: SR
MOLT-4 = system: MOLT-4
RXF 393 = system: RXF 393
SK-OV-3 = system: SK-OV-3
PC-3 = system: PC-3
NCI-H23 = system: NCI-H23
UACC-62 = system: UACC-62
SW-620 = system: SW-620
OVCAR-4 = system: OVCAR-4
TK-10 = system: TK-10
OVCAR-3 = system: OVCAR-3
IGROV-1 = system: IGROV-1
MDA-N = system: MDA-N
SF-268 = system: SF-268
MCF7 = system: MCF7
OVCAR-8 = system: OVCAR-8
SNB-19 = system: SNB-19
HCT-15 = system: HCT-15
T47D = system: T47D
EKVX = system: EKVX
Malme-3M = system: Malme-3M
HT-29 = system: HT-29
786-0 = system: 786-0
A498 = system: A498
NCI-H460 = system: NCI-H460
UACC-257 = system: UACC-257
ACHN = system: ACHN
SNB-75 = system: SNB-75
MDA-MB-231 = system: MDA-MB-231
KM12 = system: KM12
HOP-92 = system: HOP-92
SK-MEL-28 = system: SK-MEL-28
LOX IMVI = system: LOX IMVI
COLO 205 = system: COLO 205
BT-549 = system: BT-549
CCRF-CEM = system: CCRF-CEM
SN12C = system: SN12C
U-251 = system: U-251
HL-60 = system: HL-60
DU-145 = system: DU-145
NCI-H522 = system: NCI-H522
NCI-H226 = system: NCI-H226
SK-MEL-2 = system: SK-MEL-2
OVCAR-5 = system: OVCAR-5
SK-MEL-5 = system: SK-MEL-5
UO-31 = system: UO-31
MDA-MB-435 = system: MDA-MB-435
SF-295 = system: SF-295
M14 = system: M14
HOP-62 = system: HOP-62
HCC 2998 = system: HCC 2998
RPMI-8226 = system: RPMI-8226

## COP(=O)(OC)[C@@](O)(c1ccccc1)[C@@H](O)[C@H](O)c1ccccc1
HCT-116
  GI50: 36 µM (inactive)
K562
  GI50: 60.1 µM (inactive)
CAKI-1
  GI50: > 100 µM (inactive)
A549
  GI50: > 100 µM (inactive)
NCI/ADR-RES
  GI50: > 100 µM (inactive)
SF-539
  GI50: 38.4 µM (inactive)
Hs-578T
  GI50: > 100 µM (inactive)
SR
  GI50: > 100 µM (inactive)
MOLT-4
  GI50: > 100 µM (inactive)
RXF 393
  GI50: > 100 µM (inactive)
SK-OV-3
  GI50: > 100 µM (inactive)
PC-3
  GI50: > 100 µM (inactive)
NCI-H23
  GI50: > 100 µM (inactive)
UACC-62
  GI50: > 100 µM (inactive)
SW-620
  GI50: 42.2 µM (inactive)
OVCAR-4
  GI50: > 100 µM (inactive)
TK-10
  GI50: > 100 µM (inactive)
OVCAR-3
  GI50: > 100 µM (inactive)
IGROV-1
  GI50: > 100 µM (inactive)
MDA-N
  GI50: > 100 µM (inactive)
SF-268
  GI50: > 100 µM (inactive)
MCF7
  GI50: 22.5 µM (inactive)
OVCAR-8
  GI50: > 100 µM (inactive)
SNB-19
  GI50: > 100 µM (inactive)
HCT-15
  GI50: > 100 µM
T47D
  GI50: > 100 µM (inactive)
EKVX
  GI50: > 100 µM (inactive)
Malme-3M
  GI50: > 100 µM (inactive)
HT-29
  GI50: > 100 µM (inactive)
786-0
  GI50: 98.6 µM (inactive)
A498
  GI50: > 100 µM (inactive)
NCI-H460
  GI50: > 100 µM (inactive)
UACC-257
  GI50: > 100 µM (inactive)
ACHN
  GI50: > 100 µM (inactive)
SNB-75
  GI50: > 100 µM (inactive)
MDA-MB-231
  GI50: > 100 µM (inactive)
KM12
  GI50: > 100 µM (inactive)
HOP-92
  GI50: > 100 µM (inactive)
SK-MEL-28
  GI50: > 100 µM (inactive)
LOX IMVI
  GI50: 21.1 µM (inactive)
COLO 205
  GI50: > 100 µM (inactive)
BT-549
  GI50: > 100 µM (inactive)
CCRF-CEM
  GI50: 18.3 µM (inactive)
SN12C
  GI50: > 100 µM (inactive)
U-251
  GI50: > 100 µM (inactive)
HL-60
  GI50: > 100 µM (inactive)
DU-145
  GI50: > 100 µM (inactive)
NCI-H522
  GI50: > 100 µM (inactive)
NCI-H226
  GI50: > 100 µM (inactive)
SK-MEL-2
  GI50: > 100 µM (inactive)
OVCAR-5
  GI50: > 100 µM (inactive)
SK-MEL-5
  GI50: > 100 µM (inactive)
UO-31
  GI50: > 100 µM (inactive)
MDA-MB-435
  GI50: > 100 µM (inactive)
SF-295
  GI50: > 100 µM (inactive)
M14
  GI50: > 100 µM (inactive)

## Cc1nc2ccc(C(F)(F)F)cc2nc1NCc1ccc(Cl)c(Cl)c1
HCT-116
  GI50: 16.4 µM (inactive)
K562
  GI50: 20.4 µM (inactive)
CAKI-1
  GI50: 18.8 µM (inactive)
A549
  GI50: 16.4 µM (inactive)
NCI/ADR-RES
  GI50: 19.9 µM (inactive)
SF-539
  GI50: 17.5 µM (inactive)
Hs-578T
  GI50: 23.6 µM (inactive)
SR
  GI50: 14.8 µM (inactive)
MOLT-4
  GI50: 15.6 µM (inactive)
RXF 393
  GI50: 12.5 µM (inactive)
PC-3
  GI50: 12.9 µM (inactive)
NCI-H23
  GI50: 16 µM (inactive)
UACC-62
  GI50: 3.28 µM (inactive)
SW-620
  GI50: 18.9 µM (inactive)
TK-10
  GI50: < 0.01 µM (active)
OVCAR-3
  GI50: 13.3 µM (inactive)
IGROV-1
  GI50: 16.6 µM (inactive)
MDA-N
  GI50: 17.3 µM (inactive)
SF-268
  GI50: 16 µM (inactive)
MCF7
  GI50: 10 µM (inactive)
OVCAR-8
  GI50: 17.2 µM (inactive)
HOP-62
  GI50: 14.4 µM (inactive)
HCC 2998
  GI50: 10.5 µM (inactive)
SNB-19
  GI50: 18.4 µM (inactive)
HCT-15
  GI50: 12.7 µM
T47D
  GI50: 0.735 µM (active)
EKVX
  GI50: 14.1 µM (inactive)
Malme-3M
  GI50: 17.2 µM (inactive)
HT-29
  GI50: 15 µM (inactive)
786-0
  GI50: 16.6 µM (inactive)
NCI-H460
  GI50: 32.3 µM (inactive)
UACC-257
  GI50: 15.9 µM (inactive)
ACHN
  GI50: 14.8 µM (inactive)
SNB-75
  GI50: 12.9 µM (inactive)
MDA-MB-231
  GI50: 15.8 µM (inactive)
KM12
  GI50: 14.2 µM (inactive)
SK-MEL-28
  GI50: 18.4 µM (inactive)
LOX IMVI
  GI50: 15.3 µM (inactive)
COLO 205
  GI50: 15.4 µM (inactive)
BT-549
  GI50: 20.2 µM (inactive)
CCRF-CEM
  GI50: 15.5 µM (inactive)
SN12C
  GI50: 17.2 µM (inactive)
U-251
  GI50: 16.5 µM (inactive)
HL-60
  GI50: 16.7 µM (inactive)
DU-145
  GI50: 17.9 µM (inactive)
RPMI-8226
  GI50: 17.1 µM (inactive)
NCI-H522
  GI50: 14.8 µM (inactive)
NCI-H226
  GI50: 18.1 µM (inactive)
OVCAR-5
  GI50: 13.1 µM (inactive)
SK-MEL-5
  GI50: 19.6 µM (inactive)
UO-31
  GI50: 15.9 µM (inactive)
MDA-MB-435
  GI50: 17.4 µM (inactive)
SF-295
  GI50: 17.3 µM (inactive)

## COc1cc(S(=O)(=O)Nc2nc(-c3ccc(N4C(=O)/C(=C\c5cccs5)N=C4c4ccccc4)cc3)cs2)ccc1Cl
HCT-116
  GI50: 49.2 µM (inactive)
K562
  GI50: 64.9 µM (inactive)
CAKI-1
  GI50: > 100 µM (inactive)
A549
  GI50: > 100 µM (inactive)
NCI/ADR-RES
  GI50: > 100 µM (inactive)
SF-539
  GI50: 49.9 µM (inactive)
Hs-578T
  GI50: 24 µM (inactive)
SR
  GI50: 39.5 µM (inactive)
MOLT-4
  GI50: 43.9 µM (inactive)
RXF 393
  GI50: 32.1 µM (inactive)
SK-OV-3
  GI50: > 100 µM (inactive)
PC-3
  GI50: 66.8 µM (inactive)
NCI-H23
  GI50: 34.8 µM (inactive)
UACC-62
  GI50: 25.3 µM (inactive)
SW-620
  GI50: > 100 µM (inactive)
OVCAR-4
  GI50: 57.3 µM (inactive)
TK-10
  GI50: > 100 µM (inactive)
OVCAR-3
  GI50: > 100 µM (inactive)
IGROV-1
  GI50: 42.2 µM (inactive)
MDA-N
  GI50: 43.1 µM (inactive)
SF-268
  GI50: 18.7 µM (inactive)
MCF7
  GI50: 40 µM (inactive)
OVCAR-8
  GI50: 46 µM (inactive)
HOP-62
  GI50: > 100 µM (inactive)
SNB-19
  GI50: 66.2 µM (inactive)
HCT-15
  GI50: > 100 µM
T47D
  GI50: 45.8 µM (inactive)
Malme-3M
  GI50: 23.6 µM (inactive)
HT-29
  GI50: > 100 µM (inactive)
786-0
  GI50: > 100 µM (inactive)
A498
  GI50: > 100 µM (inactive)
NCI-H460
  GI50: > 100 µM (inactive)
UACC-257
  GI50: 71.3 µM (inactive)
ACHN
  GI50: > 100 µM (inactive)
SNB-75
  GI50: 51.4 µM (inactive)
MDA-MB-231
  GI50: 29.8 µM (inactive)
KM12
  GI50: 94 µM (inactive)
HOP-92
  GI50: 28.1 µM (inactive)
SK-MEL-28
  GI50: 71.6 µM (inactive)
LOX IMVI
  GI50: 32.1 µM (inactive)
COLO 205
  GI50: > 100 µM (inactive)
BT-549
  GI50: 34.5 µM (inactive)
CCRF-CEM
  GI50: 41 µM (inactive)
SN12C
  GI50: 58.5 µM (inactive)
U-251
  GI50: 45.4 µM (inactive)
HL-60
  GI50: 36.7 µM (inactive)
DU-145
  GI50: > 100 µM (inactive)
NCI-H522
  GI50: 29.4 µM (inactive)
NCI-H226
  GI50: > 100 µM (inactive)
SK-MEL-2
  GI50: 29.2 µM (inactive)
OVCAR-5
  GI50: > 100 µM (inactive)
SK-MEL-5
  GI50: 43.2 µM (inactive)
UO-31
  GI50: > 100 µM (inactive)
MDA-MB-435
  GI50: 55.6 µM (inactive)
SF-295
  GI50: > 100 µM (inactive)
M14
  GI50: > 100 µM (inactive)

— ChEMBL document CHEMBL1201862, “PubChem BioAssay data set” (2004)
